Like-named read-outs stand apart in the source and are kept apart here.
Legend:
H22 hepatocarcinoma [1] = type: in vivo; details: H22 mouse, single therapy (subgroup 2 preparation alone; subgroup 3 5-Fu 15 mg/kg alone), 7 days
Description: 1. […] The resultant model mouse is grouped randomly into eight groups.
Each mouse in first four groups is treated for observing effect of the present natural medicine preparation on the efficiency of anti-cancer chemical agent, fliorouracil (5-Fu, 15 mg/kg), mice in the rest four groups is for the effect of the present compositions on the efficiency of radiotherapy for cancer (^60Co irradiation on whole body, 4.5 Gray /day/animal).
The combination therapy to both animal groups (4 subgroups in each group) starts from the next day of grafting tumor cells and continues for 7 days.
The synergetic effect of the present composition on chemical therapy or radiotherapy for cancer is calculated by the inhibition rate according to the following Burgi's correction equation: Q= E (A+B)/EA+EB-EAxEB [formula] wherein, E (A+B) is the cancer inhibition rate of the combined therapy, EA and EB are the cancer inhibition rate of the present composition administration, or the chemical therapy (or radiotherapy) alone.
Result: (1) If Q calculated is lower than 0.85, it is considered as an antergenic effect between combined therapy; (2) if Q is between 0.85 and 1.15, it is considered as an addictive effect; and (3) if Q is above 1.15, then it is deemed as synergetic effect between combined therapy. The particular results are listed in table 3 and table 4, respectively.

S180 sacoma = details: S180 mouse, positive control CTX subcutaneously
Description: (§1) Using species Kunming mouse subcutaneously grafted S180 sacoma or H22 hepatocarcinoma as cancer-harboring model animal, the inhibition activity on growth of cancer is observed with respect to extract of anti-cancer natural medicines which converted or unconverted by the above intestinal probiotics in either large dose or small dose.
(§2) For this purpose, 120 mice weighed from about 18-25g are grafted subcutaneously at right axilla with 1 x 10^7 cells/ml of S180 sacoma or H22 hepatocarcinoma (0.2ml/mouse) in order to obtain solid tumor model animal. The resultant model animal is grouped randomly into 12 groups. Each animal in treatment group is orally administrated with unfermented (in 1:1 dilution) or fermented (in 1:4 dilution) extract of natural medicines daily.
(§3) The administration of extract of natural medicine starts at the forth day from the date grafting cancer cells, i.e., the time when solid tumor can be touched by hand. After continuously administration over 10 days, the weight of animal and solid tumor are measured, respectively, and then inhibition rate of cancer can be calculated accordingly. The treatment experiments on the two types of cancer are carried out in triplicate.

H22 hepatocarcinoma [2] = details: H22 mouse, positive control CTX subcutaneously
Description: as §1, §2, §3

Compound	inhibition rate (H22 hepatocarcinoma [1]) [%]	tumor weight (X±SD) (H22 hepatocarcinoma [1])	animal weight before ad. (S180 sacoma)	animal weight after ad. (S180 sacoma; after 10 days)	inhibition rate (S180 sacoma; after 10 days) [%]	solid tumor weight (X±SD) (S180 sacoma; after 10 days)	animal weight before ad. (H22 hepatocarcinoma [2])	animal weight after ad. (H22 hepatocarcinoma [2]; after 10 days)	inhibition rate (H22 hepatocarcinoma [2]; after 10 days) [%]	solid tumor weight (X±SD) (H22 hepatocarcinoma [2]; after 10 days)
O=c1[nH]cc(F)c(=O)[nH]1 [5-Fu, fliorouracil]	56.7	1.06±0.31	–	–	–	–	–	–	–	–
O=P1(N(CCCl)CCCl)NCCCO1 (stereo not shown) [positive control, cyclophosphamide]	–	–	20.1	21.2	61.0	0.55±0.19	21.2	27.9	62.4	0.72±0.36

From patent EP1279727A1, “TRANSFORMATION AND MODIFICATION OF NATURAL DRUG BY INTESTINAL PROBIOTIC FERMENTATIVE CULTURE” (Wu, Bingxin, priority 2000, dated 2002)
